Where a name gives a salt, the structure may show the parent alone.
How the values were obtained:
[1] = test system: Sato lung carcinoma (SLC); assay: Anti-tumor effect against tumor grown in the transparent chamber; assay type: in vivo, rat; details: 10 mg/kg, tail vein, Donryu rats; state maintained for 48 hours after treatment
Experimental: (§1) Donryu rats (Crj-Donryu; supplied by Charles River Japan, Inc.), male.
(§2) Rat lung carcinoma, Sato lung carcinoma (SLC)
(§3) MTPVS powder was dissolved in physiological saline to a final concentration of 10 mg/ml. The solution (10 mg/kg) was administered through the tail vein of rats. Pentobarbital salt (Nembutal; manufactured by Abbott Laboratories) and enflurane (Ethrane; manufactured by Abbott Laboratories) was used as an anesthesia. Pentobarbital was intramuscularly administered at a dose of 25 mg/kg, 10 minutes prior to the experiment, and a suitable amount thereof was additionally administered at intervals of 90 minutes to maintain anesthesia during the experiment. The concentration of enflurane was maintained at 1% (1 L/min) using an anesthesia device for small animals.
The change of the tumor blood flow (hereinafter referred to as “TBF”) was observed through a biomicroscope. The dorsal skin of the rat was held with a transparent chamber under sterile conditions, and a small fragment of tumor was implanted thereon. […]
MTPVS used in a test group was administered through the tail vein by infusion pump. […] The blood vessels of tumor in the chamber were visualized with a halogen lump of 12 V and 100 W. The images of the microscope were recorded using a CCD video camera (CS-900; manufactured by Olympus Corporation), a television monitor and an S-VHS video recorder. […]

[2] = test system: arteriole supplying nutrients to the tumor / tumor blood flow (SLC tumor); assay: Biomicroscopic observation of the change of tumor microcirculation; assay type: in vivo, rat; details: intravenous 10 mg/kg
Experimental: as §1, §2, §3
The change of the tumor blood flow (hereinafter referred to as “TBF”) was observed through a biomicroscope. The dorsal skin of the rat was held with a transparent chamber under sterile conditions, and a small fragment of tumor was implanted thereon. After the tumor started to grow thereto, the rat was tested as described in Jpn. J. Cancer Res. 81: 279-288, 1990, which is incorporated herein by reference. The chamber comprises two titanium flames of the same shape each having a circular quartz glass window with a thickness of 300 μm. After anesthesia, the rat with the chamber was put on a stage heated at 34.5° C. in the microscope.
MTPVS used in a test group was administered through the tail vein by infusion pump. […] and histological changes of tumor were directly observed through an optical microscope (Eclipse E800; manufactured by Nikon Corporation) with an eye lens of 10× and an object glass of 2× to 20×. The blood vessels of tumor in the chamber were visualized with a halogen lump of 12 V and 100 W. The images of the microscope were recorded using a CCD video camera (CS-900; manufactured by Olympus Corporation), a television monitor and an S-VHS video recorder.
At this time, in the blood vessel on the peripheral portion of the tumor, the plasma concentration was decreased, and large quantities of red blood cells were retained. These red blood cells were hemolyzed within 2 to 3 hours after MTPVS administration to form clog.
An inserted section on the left upper portion in FIG. 4 is an enlarged view of the blood vessels on the peripheral portion of the tumor. FIGS. 1 to 4 are based on photographs taken (length of a bar: 500 μm) by using an eye lens of 10× and an object glass of 4×. The inserted section is based on a photograph taken (length of a bar: 50 μm) by using an eye lens of 10× and an object glass of 20×.

## COc1ccc(/C=C\c2cc(OC)c(OC)c(OC)c2)cc1NC(=O)[C@@H](N)CO [MTPVS, (Z)-N-[2-methoxy-5-[2-(3,4,5-trimethoxyphenyl)vinyl]phenyl]-L-serinamide hydrochloride]
[1]
  time to necrosis of SLC tumor grown in the transparent chamber: ≤ 25 h
[2]
  restoration of tumor blood flow after clog and hemolysis: no longer restored
[2]; after administration
  time at which tumor blood flow stopped almost completely: 30 min
  time to hemolysis of retained red blood cells in blood vessel on peripheral portion of the tumor (clog formation): 2 to 3 hours
[2]; normal tissues
  blood vessel structure in the normal tissues: maintained as normal
[2]; rat SLC tumor in transparent chamber
  contraction of the arteriole supplying nutrients to the tumor: markedly contracted

Reference: US20070264198A1, “TUMOR NECROSIS AGENT” (Ajinomoto Co., Inc., priority 2001, published 2007)
